Assay results: patent US10526388B2, “Peptide derived from GPC3, pharmaceutical composition for treatment or prevention of cancer using the same, immunity inducer, and method for producing antigen-presenting cells” (CYTLIMIC INC., priority 2015, dated 2020)
Ends that are not written are not given here.

Experiments:
HLA-A*02:06 molecule = molecular target: T1, HLA-A*02:06 molecule (Homo sapiens, UniProt P04439, D140Y/D185E/D98H/E176V/E277Q/F33Y/G131W/G231S/I119V/I121R/I166T/I218V/L300P/L318F/N151K/N90K/P208A/P217A/Q86G/Q94H/R138H/R169H/T345S); assay: Binding experiment of peptide to HLA-A*02:06 molecule (RA2.6 cells, antibody BB7.2, flow cytometer); details: for Kd: RA2.6 cells, 26° C. 60 minutes then 35° C. 4 hours, negative figures given (log of Kd value)
T1 construct: expressed in transfected cells; host or cells: RA2.6 cells (RMAS mouse TAP-deficient line carrying HLA-A*02:06 cDNA; prepared at Kochi University)
Procedure: The binding capacity of each peptide to the HLA-A*02:06 molecule as the product of HLA-A*02:06 gene was measured using RA2.6 cells (a cell line newly prepared at Kochi University) in which cDNA of the HLA-A*02:06 gene was introduced into RMAS as a mouse TAP (transporter associated with antigen processing)-deficient cell line.
First, the RA2.6 cells were cultured overnight at 26° C. to accumulate the HLA-A*02:06 molecules unbound to the peptide on the cell surface. Any of peptide dilution series was added thereto for binding at 26° C. for 60 minutes.
Subsequently, the mixture was cultured at 35° C. for 4 hours, resulting in the denaturation of the empty HLA-A*02:06 molecule unbound to the peptide and the loss of its steric structure. A fluorescent labeled monoclonal antibody, BB7.2, specifically recognizing a peptide-bound HLA-A*02:06 molecule, was added thereto, which was then incubated on ice for 20 minutes to stain the cells.
(§1) Thereafter, the amount of fluorescence per cell was measured using a flow cytometer, and the dissociation constant, Kd value, was calculated using a method as published in a paper by the present inventor (Udaka et al., Immunogenetics, 51, 816-828, 2000).

HLA-A*02:01 molecule = HLA-A*02:01 molecule (Homo sapiens, UniProt P04439, D140Y/D185E/D98H/E176V/E277Q/G131W/G231S/I119V/I121R/I166T/I218V/L300P/L318F/N151K/N90K/P208A/P217A/Q86G/Q94H/R138H/R169H/T345S); assay: Binding experiment of peptide to HLA-A*02:01 molecule (T2 cells, antibody BB7.2, flow cytometer); details: for Kd: T2 cells, 37° C. 4 hours, negative figures given (log of Kd value)
Procedure: The binding capacity of each peptide to the HLA-A*02:01 molecule as the product of HLA-A*02:01 gene was measured using a cell line, T2, (purchased from ATCC) expressing the HLA-A*02:01 molecule.
T2 cells and purified β2m were added to stepwise dilution series of a peptide whose binding capacity was to be measured, which was then incubated at 37° C. for 4 hours.
as §1

HLA-A*24:02 molecule = HLA-A*24:02 molecule (Homo sapiens, UniProt P04439, D101N/D140Y/D185E/E176V/E190D/F33S/G103R/G107R/I119L/I121M/I306V/K335N/L105A/L180Q/L300P/N151K/N90K/Q86E/Q94H/R106L/R138H/R89G/T104I/T345S/V100E/W191G/Y123F); assay: Binding experiment of peptide to HLA-A*24:02 molecule (C1R-A24 cells, antibody 17A12, FACScan); details: for Kd: C1R-A24 cells, on ice 4 hours, negative figures given (log of Kd value)
Procedure: The binding capacity of each peptide to the HLA-A*24:02 molecule as the product of HLA-A*24:02 gene was measured using C1R-A24 cells expressing the HLA-A*24:02 molecule (the cells prepared by Prof. Masafumi Takeguchi, Kumamoto University were gifted by Assoc. Prof. Masaki Yasukawa, Ehime University with permission).
First, C1R-A24 cells were exposed to acidic conditions of pH 3.3 for 30 seconds to dissociate and remove endogenous peptides which were originally bound to the HLA-A*24:02 molecule and a light chain, […], which was commonly associated with HLA class I molecules. After neutralization, purified β2m was added to the C1R-A24 cells, which was then added to peptide dilution series. The mixtures were each then incubated on ice for 4 hours. The 3-molecule assembly (MHC-pep) consisting of the HLA-A*24:02 molecule, the peptide, and β2 m which had been reasociated during the incubation was stained with a fluorescent labeled monoclonal antibody, 17A12, recognizing the assembly.
Subsequently, the number of MHC-pep's per C1R-A24 cell (which is proportional to the fluorescent intensity of the above fluorescent antibody) was quantitatively measured using a fluorescent cell analyzer, FACScan (Becton, Dickinson and Company). The binding dissociation constant, Kd value, between the HLA-A*24:02 molecule and the peptide was calculated from the average fluorescent intensity per cell using a method as published in a paper (Udaka et al., Immunogenetics, 51, 816-828, 2000) by the present inventor.

CD8T cells = assay: Immunity induction test of peptide (peptide-stimulated dendritic cells cocultured with CD8T cells, IFN-γ ELISPOT / ELISA); format: cell-based, human
Procedure: (1) Preparation of Peptide-stimulated Dendritic Cell
Of peripheral blood monocytes obtained by pheresis from the patient treated with HSP70 dendritic cell therapy, a cell fraction adhering to the culture flask was cultured in AIM-CM medium (trade name “Gibco” from Thermo Fisher Scientific Co., Ltd.) at 37° C. for 10 days. During culture, 15 μl of IL-4 and 30 μl of granulocyte-monocyte colony-stimulating factor (GM-CSF) were added to the medium at day 0 and day 3, and 15 μl of IL-4, 30 μl of GM-CSF, and 75 μl of tumor necrosis factor (TNF)-α were added at day 5.
The dendritic cells induced were newly recovered into AIM-CM medium, and the peptides of the present invention (SEQ ID NOS: 1 to 11) were each added to 20 μg/ml. […]
The dendritic cells were recovered, washed 3 times or more with a sufficient amount of AIM-CM medium, and counted. […]
Using CD8 Negative Selection Kit (from Miltenyi Biotec), CD8T cells were separated from the medium and counted. […]
A culture supernatant at day 7 after coculture of T cells with dendritic cells pulsed with each of the above peptides was diluted to the 4 levels of ×1, ×5, ×25, and ×125 to identify the dilution level falling within the limit of measurement using Human IFN-γ ELISA MAX Deluxe Set (from BioLegend Inc.). Thereafter, each sample was measured 3 times at the identified dilution level. […]

In the case of ALNLGIEVI [SEQ ID NO: 7, ALNLGIEVI], the “binding to HLA-A*02:06 molecule (in words)” value (HLA-A*02:06 molecule) is reported as “strongly binds”, the Kd (HLA-A*02:06 molecule) is reported as 69 µM and the “binding to HLA-A*02:01 molecule (in words)” value (HLA-A*02:01 molecule) is reported as “strongly binds”. The Kd (HLA-A*02:01 molecule) was 1.21 µM, the “binding to HLA-A*24:02 molecule (in words)” value (HLA-A*24:02 molecule) was “strongly binds” and the Kd (HLA-A*24:02 molecule) was 111 µM. The “immunogenicity (in words)” value (CD8T cells) was “high immunogenicity”.

In the case of ARLNMEQLL [SEQ ID NO: 11, ARLNMEQLL], the Kd (HLA-A*02:06 molecule) is reported as 1720 µM, the Kd (HLA-A*02:01 molecule) is reported as 144 µM and the Kd (HLA-A*24:02 molecule) is reported as 6.26 µM.

In the case of GMIKVKNQL [SEQ ID NO: 10, GMIKVKNQL], the Kd (HLA-A*02:06 molecule) is reported as 439 µM, the Kd (HLA-A*02:01 molecule) is reported as 17.5 µM and the Kd (HLA-A*24:02 molecule) is reported as 0.125 µM.

For GYICSHSPV [SEQ ID NO: 6, GYICSHSPV], the Kd (HLA-A*02:06 molecule) was > 1000 µM, the Kd (HLA-A*02:01 molecule) was > 1000 µM and the Kd (HLA-A*24:02 molecule) was 0.283 µM.

Sequence KLTTTIGKL [SEQ ID NO: 9, KLTTTIGKL] has a Kd (HLA-A*02:06 molecule) of 9.25 µM, a Kd (HLA-A*02:01 molecule) of 10.7 µM and a Kd (HLA-A*24:02 molecule) of 6.14 µM.

In the case of LFDSLFPVI [SEQ ID NO: 2, LFDSLFPVI], the Kd (HLA-A*02:06 molecule) is reported as > 1000 µM, the Kd (HLA-A*02:01 molecule) is reported as 8.61 µM and the Kd (HLA-A*24:02 molecule) is reported as 0.0374 µM.

LLQSASMEL [SEQ ID NO: 8, LLQSASMEL] gave a Kd (HLA-A*02:06 molecule) of 1.33 µM, a Kd (HLA-A*02:01 molecule) of 0.73 µM and a Kd (HLA-A*24:02 molecule) of 3.25 µM.

MVNELFDSL [SEQ ID NO: 1, MVNELFDSL] showed a Kd (HLA-A*02:06 molecule) of 0.724 µM, a Kd (HLA-A*02:01 molecule) of 4.94 µM and a Kd (HLA-A*24:02 molecule) of 20 µM.

For SALDINECL [SEQ ID NO: 3, SALDINECL], the Kd (HLA-A*02:06 molecule) was 0.483 µM, the Kd (HLA-A*02:01 molecule) was > 1000 µM and the Kd (HLA-A*24:02 molecule) was > 1000 µM.

Work on SLQVTRIFL [SEQ ID NO: 4, SLQVTRIFL] yielded a Kd (HLA-A*02:06 molecule) of 6.11 µM, a Kd (HLA-A*02:01 molecule) of 0.616 µM and a Kd (HLA-A*24:02 molecule) of 4.61 µM.

SLTPQAFEF [SEQ ID NO: 5, SLTPQAFEF] showed a Kd (HLA-A*02:06 molecule) of 30.5 µM, a Kd (HLA-A*02:01 molecule) of 11.9 µM and a Kd (HLA-A*24:02 molecule) of 0.077 µM.
